Laboratory results: US7964349B2, “Method to determine responsiveness of cancer to epidermal growth factor receptor targeting treatments” (The General Hospital Corporation, priority 2004, dated 2011)
Where “and” joins values, the source holds several entries; their conditions need not be identical. Equal entries are not always repeated. Entries after “also recorded” stand apart in the source; their conditions may differ.

Columns and labels:
[1] = test system: non-small cell lung cancer (NSCLC)
Experimental: A significant clinical response was defined either as a partial response using RECIST criteria for patients with measurable disease, or for patients whose tumor burden could not be quantified using these criteria, an evaluable response was assessed by two physicians.

[2] = test system: non-small cell lung cancer (NSCLC); conditions: cited from earlier work
[3] = test system: Lung cancer cells harboring EGFR mutations vs cells with wild-type receptor; experiment: Apoptosis / cell viability (MTT) assay with increasing drug concentrations; format: cell-based, human; conditions: compared with cells expressing only wild-type EGFR
Experimental: 10,000 cells were seeded into individual wells of a 96-well plate. […] After 96 hours, the viability of cells was determined using the MTT assay. For caspase immunostaining, 10,000 cells were seeded onto 10 mm coverslips. The next day they were transfected with siRNA (see previous section for details). After 72 hours the cells were fixed in 4% paraformaldehyde at room temperature for 10 min. They were subsequently permeabilized for 5 min in 0.5% Triton X-100 and blocked for 1 hr in 5% normal goat serum (NGS). […] The next day the coverslips were washed 3 times in PBS and incubated for 1 hour with secondary antibody (goat anti-rabbit Texas-red conjugated; from Jackson Immunoresearch; West Grove, Pa.) at a 1:250 dilution in 5% normal goat serum and 0.5 μg/ml of DAPI (4′,6-Diamidino-2-phenylindole). After 3 washes in PBS the coverslips were mounted with ProLong Gold anti-fade reagent from Molecular Probes (Eugene, Oreg.).
10 μl of 5 mg/ml MTT (Thiazolyl blue; Sigma) solution was added to each well of a 96-well plate. After 2 hours of incubation at 37° C., the medium was removed and the MTT was solubilized by the addition of 100 μl of acidic isopropanol (0.1N HCL) to each well. The absorbance was determined spectophotometrically at 570 nm.

[4] = test system: advanced NSCLC; experiment: Randomized trial of carboplatin/paclitaxel with or without erlotinib in advanced NSCLC; format: in vivo, human
Experimental: Tumor specimens were analyzed from patients with advanced NSCLC treated on the randomized trial of carboplatin/paclitaxel with or without erlotinib.

[5] = single patients 1-9, one per line
[6] = multi-institutional phase II trial

Molecule: COc1cc2ncnc(Nc3ccc(F)c(Cl)c3)c2cc1OCCCN1CCOCC1 [Gefitinib]
- patients identified as having significant clinical responses ([1]; of a total of 275 patients treated): 25 patients
- Overall Survival, from the beginning of gefitinib treatment to death [1, 5]: >14.0 mo and 12.9 mo and >21.4 mo and >7.8 mo and >4.3 mo and 17.9 mo and 18.8 mo
- Response [1, 5]: Major; Improved bilateral; also recorded: Partial; improved lung; also recorded: Minor; improved pleural; also recorded: Partial; improved liver; also recorded: Major; improved lung
- median survival from the start of drug treatment ([1]; the 9 responder patients of Table 1): > 18 months
- patients with dramatic clinical responses ([2]; chemotherapy-refractory NSCLC): approximately 10%
- side effects of treatment ([2]; generally believed consequence of EGFR inhibition in normal tissues): diarrhea and dermatitis
- response rate, Japanese patients [2, 6]: 27.5%
- response rate, predominantly European-derived population [2, 6]: 10.4%

Molecule: N.N.[Cl][Pt][Cl] [cisplatin]
- resistance of EGFR-mutant lung cancer cells to induced cell death signals [3]: markedly increased resistance

Molecule: COc1cccc2c1C(=O)c1c(O)c3c(c(O)c1C2=O)C[C@@](O)(C(=O)CO)C[C@@H]3O[C@H]1C[C@H](N)[C@H](O)[C@H](C)O1 [doxorubicin]
- resistance of EGFR-mutant lung cancer cells to induced cell death signals [3]: markedly increased resistance

Molecule: C#Cc1cccc(Nc2ncnc3cc(OCCOC)c(OCCOC)cc23)c1 [erlotinib]
- survival in the two treatment arms [4]: equivalent survival

Molecule: Fas-ligand
- resistance of EGFR-mutant lung cancer cells to induced cell death signals [3]: markedly increased resistance
